BindingDB's records for doi:10.1016/s0028-3908(00)00022-8 (University of Frankfurt, 2000)

Experiments:
ATP receptor [1] = molecular target: T1, ATP receptor (Xenopus sp., UniProt F6VH38)
T1 sequence (F6VH38 whole entry): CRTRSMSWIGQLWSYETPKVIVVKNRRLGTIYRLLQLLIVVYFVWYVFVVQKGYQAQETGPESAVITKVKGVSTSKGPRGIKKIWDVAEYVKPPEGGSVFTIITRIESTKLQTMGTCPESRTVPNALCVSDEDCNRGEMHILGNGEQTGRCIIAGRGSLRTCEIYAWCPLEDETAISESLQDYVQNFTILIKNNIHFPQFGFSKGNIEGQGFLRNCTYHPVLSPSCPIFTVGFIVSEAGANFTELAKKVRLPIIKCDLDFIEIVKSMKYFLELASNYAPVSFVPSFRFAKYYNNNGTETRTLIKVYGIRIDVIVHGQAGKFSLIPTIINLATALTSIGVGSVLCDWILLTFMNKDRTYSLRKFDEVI

ATP receptor [2] = molecular target: T2, ATP receptor (Xenopus sp., UniProt Q64F95)
T2 sequence (Q64F95 whole entry): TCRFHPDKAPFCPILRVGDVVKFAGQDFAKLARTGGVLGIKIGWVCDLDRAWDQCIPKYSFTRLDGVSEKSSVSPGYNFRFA

P2X purinoceptor = molecular target: T3, P2X purinoceptor (Xenopus sp., UniProt Q9DDP1)
T3 sequence (Q9DDP1 whole entry): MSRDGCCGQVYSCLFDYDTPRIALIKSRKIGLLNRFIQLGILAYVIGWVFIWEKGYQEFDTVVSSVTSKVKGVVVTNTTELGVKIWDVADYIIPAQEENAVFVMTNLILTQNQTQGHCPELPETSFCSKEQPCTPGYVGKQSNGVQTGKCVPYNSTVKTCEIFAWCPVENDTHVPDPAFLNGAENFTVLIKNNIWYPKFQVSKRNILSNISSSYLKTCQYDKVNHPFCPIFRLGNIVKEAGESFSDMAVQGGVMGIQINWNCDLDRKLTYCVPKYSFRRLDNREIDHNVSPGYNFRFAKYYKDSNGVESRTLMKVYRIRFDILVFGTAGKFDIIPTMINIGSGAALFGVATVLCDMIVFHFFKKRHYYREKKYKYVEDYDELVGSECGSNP

Ki (ATP receptor [1]): 0.77 µM | Ki (ATP receptor [2]): 1.62 µM | Ki (P2X purinoceptor): > 10 µM
Structure (SMILES): O=C(Nc1ccc(C(=O)Nc2ccc(C(=O)Nc3ccc(S(=O)(=O)O)c4cc(S(=O)(=O)O)cc(S(=O)(=O)O)c34)cc2)cc1)Nc1ccc(C(=O)Nc2ccc(C(=O)Nc3ccc(S(=O)(=O)O)c4cc(S(=O)(=O)O)cc(S(=O)(=O)O)c34)cc2)cc1 [CAS_5311315]
